For this assay, the system named is Acinetobacter baumannii ATCC17961. The assay is described as follows: Antimicrobial susceptibility testing: 90% growth inhibitory concentration (IC90) determination in Iso-Sensitest broth, OD600 growth. It is filed as cell-based. In outline:
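Compounds were twofold serially diluted in DMSO across 10 points (e.g. 50 to 0.097 μM final) and inoculated at ~5×10^(5) CFU/ml. Plates incubated at 35±2° C, with OD600 read every 20 minutes over 16 h. IC90 was derived from growth inhibition during logarithmic growth.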

Setting [1] is: Acinetobacter baumannii, ATCC17961, 16 h, read-out: A. baumannii ATCC 17961 IC90 (uM), strain ATCC 17961, OD600 growth over 16 h.
[2] abbreviates: strain ATCC 17961, OD600 growth over 16 h, read-out: A. baumannii ATCC 17961 IC90.
Setting [3] is: Acinetobacter baumannii, ATCC17961, 16 h, strain ATCC 17961, OD600 growth over 16 h, read-out: A. baumannii ATCC 17961 IC90.

Counter-ions that a name gives are not always drawn. Like-named read-outs stand apart in the source and are kept apart here.

For orientation: IC90 means the concentration at which the effect reaches the 90% level.

Consider `O=C(c1ccc(Nc2nccn3c(-c4cn(Cc5ncccn5)nc4C(F)(F)F)cnc23)cc1Cl)N1CCNCC1` [Example 169, [2-chloro-4-[[3-[1-(pyrimidin-2-ylmethyl)-3-(trifluoromethyl)pyrazol-4-yl]imidazo[1,2-a]pyrazin-8-yl]amino]phenyl]-piperazin-1-ylmethanone formate], for which the IC90 under setting [1] worked out at 0.392 µM.

Consider “4-[[3-[1-(2-cyanomethyl)-3-(trifluoromethyl)pyrazol-4-yl]imidazo[1,2-a]pyrazin-8-yl]amino]-2-ethyl-N-methylbenzamide [Example 337]”, for which the IC90 under setting [2] came out at 0.359 µM.

On to `CCc1cc(Nc2nccn3c(-c4cn(CC#N)nc4C(F)(F)F)cnc23)ccc1C(=O)NCCCNC(=O)[C@@H]1CC[C@H](N)C1` [Example 483, N-(3-((1R,3S)-3-(l2-azaneyl)cyclopentane-1-carboxamido)propyl)-4-((3-(1-(cyanomethyl)-3-(trifluoromethyl)-1H-pyrazol-4-yl)imidazo[1,2-a]pyrazin-8-yl)amino)-2-ethylbenzamide formate], for which the IC90 under setting [1] was 0.194 µM.

As to `N[C@H]1CC[C@@H](C(=O)N2CCN(C(=O)c3ccc(Nc4nccn5c(-c6c[nH]nc6C(F)(F)F)cnc45)cc3Cl)CC2)C1` [Example 340, [4-[(1R,3S)-3-aminocyclopentanecarbonyl]piperazin-1-yl]-[2-chloro-4-[[3-[3-(trifluoromethyl)-1H-pyrazol-4-yl]imidazo[1,2-a]pyrazin-8-yl]amino]phenyl]methanone formate], the IC90 under setting [1] is 0.194 µM.

`Cc1cc(Nc2nccn3c(-c4cn(CC#N)nc4C(F)(F)F)cnc23)ccc1C(=O)N[C@H](C)C(=O)N[C@@H]1CCNC1` [Example 746, 4-[[3-[1-(cyanomethyl)-3-(trifluoromethyl)pyrazol-4-yl]imidazo[1,2-a]pyrazin-8-yl]amino]-2-methyl-N-[(1R)-1-methyl-2-oxo-2-[[(3R)-pyrrolidin-3-yl]amino]ethyl] benzamide formate]: the IC90 under setting [3] turned out to be 0.581 µM.

With `CCc1cc(Nc2nccn3c(-c4cn(CC(F)F)nc4C(F)(F)F)cnc23)ccc1C(=O)NCC(CN)CCl` (stereo not shown) [Example 558, N-(3-amino-2-(chloromethyl)propyl)-4-((3-(1-(2,2-difluoroethyl)-3-(trifluoromethyl)-1H-pyrazol-4-yl)imidazo[1,2-a]pyrazin-8-yl)amino)-2-ethylbenzamide formate], the IC90 under setting [1] turned out to be 0.174 µM.

For the molecule `C=CCn1cc(-c2cnc3c(Nc4ccc(C(=O)N5CCN(C(=O)[C@@H]6C[C@@H](O)CN6)CC5)c(CC)c4)nccn23)c(C(F)F)n1` [Example 774, (4-(4-((3-(1-allyl-3-(difluoromethyl)-1H-pyrazol-4-yl)imidazo[1,2-a]pyrazin-8-yl)amino)-2-ethylbenzoyl)piperazin-1-yl)((2S,4R)-4-hydroxypyrrolidin-2-yl)methanone], the IC90 under setting [3] worked out at 0.986 µM.

For the molecule `COCCn1cc(-c2cnc3c(Nc4ccc(C(=O)N5CCN(C(=O)NCCN)CC5)c(Cl)c4)nccn23)c(C(F)(F)F)n1` [Example 290, N-(2-aminoethyl)-4-[2-chloro-4-[[3-[1-(2-methoxyethyl)-3-(trifluoromethyl)pyrazol-4-yl]imidazo[1,2-a]pyrazin-8-yl]amino]benzoyl] piperazine-1-carboxamide formate], the IC90 under setting [2] was determined as 0.33 µM.

As to `N[C@@H]1CC[C@H](NC(=O)N2CCN(C(=O)c3ccc(Nc4nccn5c(-c6c[nH]nc6C(F)(F)F)cnc45)cc3Cl)CC2)C1` [Example 233, N-[(1S,3R)-3-aminocyclopentyl]-4-[2-chloro-4-[[3-[3-(trifluoromethyl)-1H-pyrazol-4-yl]imidazo[1,2-a]pyrazin-8-yl]amino]benzoyl] piperazine-1-carboxamide formate], the IC90 under setting [2] amounted to 0.169 µM.

With `CCc1cc(Nc2nccn3c(-c4cn(CC#N)nc4C(F)(F)F)cnc23)ccc1C(=O)N[C@H](C)C(=O)N1CC[C@H](N)C1` [Example 736, N-[(1R)-2-[(3S)-3-aminopyrrolidin-1-yl]-1-methyl-2-oxo-ethyl]-4-[[3-[1-(cyanomethyl)-3-(trifluoromethyl)pyrazol-4-yl]imidazo[1,2-a]pyrazin-8-yl]amino]-2-ethyl-benzamide formate], the IC90 under setting [1] amounted to 0.49 µM.

On to `Cc1cc(Nc2nccn3c(-c4c[nH]nc4C(F)(F)F)cnc23)ccc1C(=O)NCCCNC(=O)[C@@H]1C[C@@H](O)CN1` [Example 442, formic acid; (2S,4R)-4-hydroxy-N-[3-[[2-methyl-4-[[3-[3-(trifluoromethyl)-1H-pyrazol-4-yl]imidazo[1,2-a]pyrazin-8-yl]amino]benzoyl]amino]propyl]pyrrolidine-2-carboxamide], for which the IC90 under setting [1] turned out to be 0.622 µM.

Consider `CCc1cc(Nc2nccn3c(-c4cn(CC(F)F)nc4C(F)(F)F)cnc23)ccc1C(=O)NC1CNC1` [Example 565, N-(azetidin-3-yl)-4-((3-(1-(2,2-difluoroethyl)-3-(trifluoromethyl)-1H-pyrazol-4-yl)imidazo[1,2-a]pyrazin-8-yl)amino)-2-ethylbenzamide formate], for which the IC90 under setting [1] is 0.188 µM.

Regarding `Cc1cc(Nc2nccn3c(-c4cn(CC#N)nc4C(F)(F)F)cnc23)ccc1C(=O)NCC(=O)N[C@@H]1CCNC1` [Example 750, 4-[[3-[1-(cyanomethyl)-3-(trifluoromethyl)pyrazol-4-yl]imidazo[1,2-a]pyrazin-8-yl]amino]-2-methyl-N-[2-oxo-2-[[(3R)-pyrrolidin-3-yl]amino]ethyl]benzamide formate], the IC90 under setting [1] came out at 0.625 µM.

As for `O=C(c1ccc(Nc2nccn3c(-c4c[nH]nc4C(F)(F)F)cnc23)cc1Cl)N1CCN(C(=O)C2(O)CCNCC2)CC1` [Example 449, [2-chloro-4-[[3-[3-(trifluoromethyl)-1H-pyrazol-4-yl]imidazo[1,2-a]pyrazin-8-yl]amino]phenyl]-[4-(4-hydroxypiperidine-4-carbonyl)piperazin-1-yl]methanone formate], the IC90 under setting [1] was found to be 0.301 µM.

Consider `CCc1cc(Nc2nccn3c(-c4cn(CC#N)nc4C(F)(F)F)cnc23)ccc1C(=O)NCCCCCN` [Example 329, N-(5-aminopentyl)-4-[[3-[1-(cyanomethyl)-3-(trifluoromethyl)pyrazol-4-yl]imidazo[1,2-a]pyrazin-8-yl]amino]-2-ethylbenzamide], for which the IC90 under setting [3] turned out to be 0.211 µM.

`NC12CC(NC(=O)c3ccc(Nc4nccn5c(-c6cn(CC(F)F)nc6C(F)(F)F)cnc45)cc3Cl)(C1)C2` [Example 87, N-(3-amino-1-bicyclo[1.1.1]pentanyl)-2-chloro-4-[[3-[1-(2,2-difluoroethyl)-3-(trifluoromethyl)pyrazol-4-yl]imidazo[1,2-a]pyrazin-8-yl]amino]benzamide]: the IC90 under setting [3] amounted to 0.359 µM.

On to `N#CCn1cc(-c2cnc3c(Nc4ccc(C(=O)N5CCN(C(=O)[C@H]6CC[C@H](N)C6)CC5)c(Cl)c4)nccn23)c(C(F)(F)F)n1` [Example 582, 2-(4-(8-((4-(4-((1S,3S)-3-aminocyclopentane-1-carbonyl)piperazine-1-carbonyl)-3-chlorophenyl)amino)imidazo[1,2-a]pyrazin-3-yl)-3-(trifluoromethyl)-1H-pyrazol-1-yl) acetonitrile formate], for which the IC90 under setting [1] amounted to 0.232 µM.

Turning to `CCc1cc(Nc2nccn3c(-c4cn(CC#N)nc4C(F)(F)F)cnc23)ccc1C(=O)NOCCN` [Example 228, N-(2-aminoethoxy)-4-[[3-[1-(cyanomethyl)-3-(trifluoromethyl)pyrazol-4-yl]imidazo[1,2-a]pyrazin-8-yl]amino]-2-ethylbenzamide formate], the IC90 under setting [1] amounted to 0.409 µM.

Regarding `N#CCn1cc(-c2cnc3c(Nc4ccc(C(=O)NCC(=O)NC5CC(N)C5)c(Cl)c4)nccn23)c(C(F)(F)F)n1` (stereo not shown) [Example 660, N-[2-[(3-aminocyclobutyl)amino]-2-oxo-ethyl]-2-chloro-4-[[3-[1-(cyanomethyl)-3-(trifluoromethyl)pyrazol-4-yl]imidazo[1,2-a]pyrazin-8-yl]amino] benzamide formate], under setting [3], the IC90 amounted to 0.277 µM.

In the case of `CCc1cc(Nc2nccn3c(-c4cn(CC#N)nc4C(F)(F)F)cnc23)ccc1C(=O)NCCNC(=O)CCCN` [Example 540, N-(2-(4-aminobutanamido)ethyl)-4-((3-(1-(cyanomethyl)-3-(trifluoromethyl)-1H-pyrazol-4-yl)imidazo[1,2-a]pyrazin-8-yl)amino)-2-ethylbenzamide formate], under setting [1], the IC90 is 0.249 µM.

On to `CCc1cc(Nc2nccn3c(-c4cn(CCF)nc4C(F)(F)F)cnc23)ccc1C(=O)NCCOC[C@@H](C)N` [Example 150, N-[2-[(2R)-2-aminopropoxy]ethyl]-2-ethyl-4-[[3-[1-(2-fluoroethyl)-3-(trifluoromethyl)pyrazol-4-yl]imidazo[1,2-a]pyrazin-8-yl]amino]benzamide], for which the IC90 under setting [3] came out at 0.173 µM.

With `NC1CN(C(=O)c2ccc(Nc3nccn4c(-c5c[nH]nc5C(F)(F)F)cnc34)cc2Cl)C1` [Example 167], under setting [2], the IC90 was 0.485 µM.

Consider `CCc1cc(Nc2nccn3c(-c4cn(Cc5ccncn5)nc4C(F)(F)F)cnc23)ccc1C(=O)NCCOCCN` [Example 2, N-[2-(2-aminoethoxy)ethyl]-2-ethyl-4-[[3-[1-(pyrimidin-4-ylmethyl)-3-(trifluoromethyl)pyrazol-4-yl]imidazo[1,2-a]pyrazin-8-yl]amino]benzamide], for which the IC90 under setting [3] was found to be 0.513 µM.

As for `CCc1cc(Nc2nccn3c(-c4cn(CCF)nc4C(F)(F)F)cnc23)ccc1C(=O)NCCOCCN1CCCC1` [Example 617, 2-ethyl-4-((3-(1-(2-fluoroethyl)-3-(trifluoromethyl)-1H-pyrazol-4-yl)imidazo[1,2-a]pyrazin-8-yl)amino)-N-(2-(2-(pyrrolidin-1-yl)ethoxy)ethyl) benzamide formate], the IC90 under setting [3] was 0.125 µM.

On to `CCc1cc(Nc2nccn3c(-c4cn(CC#N)nc4C(F)(F)F)cnc23)ccc1C(=O)NCC(=O)N[C@H]1CCNC1` [Example 758, 4-[[3-[1-(cyanomethyl)-3-(trifluoromethyl)pyrazol-4-yl]imidazo[1,2-a]pyrazin-8-yl]amino]-2-ethyl-N-[2-oxo-2-[[(3S)-pyrrolidin-3-yl]amino]ethyl]benzamide formate], for which the IC90 under setting [1] was 0.693 µM.

For the origin of these results see patent US20230203043A1, “NOVEL IMIDAZOPYRAZINE DERIVATIVES” (Hoffmann-La Roche Inc., priority 2020, published 2023).
